Measurements: paper PMC7440923, “Measuring protein stability in the GroEL chaperonin cage reveals massive destabilization” (eLife, 2020)
Each block holds one molecule with its values, some of them ahead of it.

What was measured:
[1] = biological target: T1, DHFRMp fused to eGFP (chimera), free in bulk solution (Moritella profunda, UniProt Q70YQ6); assay: differential scanning fluorimetry, SYPRO Orange; assay type: binding; settings: 500 µM ligand, 5 µM chimera, working buffer pH 8.0; transition of the DHFRMp part
T1 construct: gene dyrA; N-terminal His7-eGFP (A206K)-linker with TEV site-DHFRMp at the C-terminus; fusion uncut; E. coli BL21; not encapsulated

[2] = biological target: T2, GroEL (Escherichia coli, UniProt P0A6F5 1-548); assay: SEC; freshly assembled football complexes: acid-denatured eGFP added to GroEL and GroES oligomers in folding buffer, assembly started with Na2SO4, NaF, BeSO4 and ATP; gel-filtration in working buffer (20 mM Hepes pH 8.0, 100 mM KCl, 50 mM MgCl2, 50 mM Na2SO4, 10 mM NaF, 1 mM BeSO4, 1 mM DTT); A280 and A485, fractions by SDS-PAGE; settings: both partners purified
T2 construct: GroEL chaperonin of the Escherichia coli GroE system; used as 'GroEL oligomer'; Expression and purification of GroEL are not described; also called GroEL oligomer
T2 sequence (P0A6F5 whole entry): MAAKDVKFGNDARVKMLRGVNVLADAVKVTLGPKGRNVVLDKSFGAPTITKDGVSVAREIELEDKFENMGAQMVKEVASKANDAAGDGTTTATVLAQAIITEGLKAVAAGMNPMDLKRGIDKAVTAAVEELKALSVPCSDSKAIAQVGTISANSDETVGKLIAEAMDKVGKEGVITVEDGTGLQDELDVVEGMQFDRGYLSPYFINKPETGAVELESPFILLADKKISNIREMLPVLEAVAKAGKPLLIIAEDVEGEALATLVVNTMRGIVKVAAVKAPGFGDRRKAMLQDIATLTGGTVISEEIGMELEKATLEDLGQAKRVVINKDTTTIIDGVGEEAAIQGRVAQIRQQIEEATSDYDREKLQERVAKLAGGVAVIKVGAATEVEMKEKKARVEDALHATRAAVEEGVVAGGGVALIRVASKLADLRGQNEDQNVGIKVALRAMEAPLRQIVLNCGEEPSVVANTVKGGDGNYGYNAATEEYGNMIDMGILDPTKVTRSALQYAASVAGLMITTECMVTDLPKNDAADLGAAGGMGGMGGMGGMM

[3] = substrate: Nc1nc2c(c(=O)[nH]1)N=C(CNc1ccc(C(=O)N[C@@H](CCC(=O)O)C(=O)O)cc1)CN2; assay: purified protein; assay type: biochemical, Moritella profunda; settings: 350 µM NADPH, 23 °C, working buffer (20 mM Hepes pH 8.0, 100 mM KCl, 50 mM MgCl2, 50 mM Na2SO4, 10 mM NaF, 1 mM BeSO4, 1 mM DTT), free chimera in bulk solution

- increase in melting temperature (dTm) [1]: ~ 8 °C
Molecule: NC(=O)C1=CN([C@@H]2O[C@H](COP(=O)(O)OP(=O)(O)OC[C@H]3O[C@@H](n4cnc5c(N)ncnc54)[C@H](OP(=O)(O)O)[C@@H]3O)[C@@H](O)[C@H]2O)C=CC1 [NADPH]

- increase in melting temperature (dTm) [1]: ~ 31 °C
Molecule: Nc1nc2c(c(=O)[nH]1)N=C(CNc1ccc(C(=O)N[C@@H](CCC(=O)O)C(=O)O)cc1)CN2 [dihydrofolate]

- binding result [2]: binds
B1: GroES (natural protein, Escherichia coli, UniProt P0A6F9 1-97, looked up)
chain: MNIRPLHDRVIVKRKEVETKSAGGIVLTGSAAAKSTRGEVLAVGNGRILENGEVKPLDVKVGDIVIFNDGYGVKSEKIDNEEVLIMSESDILAIVEA
notes: GroES, co-factor of GroEL in the Escherichia coli GroE system; used as 'GroES oligomer'; Expression and purification of GroES are not described; also called GroES oligomer

B2: DHFRMp fused to eGFP (chimera), free in bulk solution (Moritella profunda) (protein)
chain: MIVSMIAALANNRVIGLDNKMPWHLPAELQLFKRATLGKPIVMGRNTFESIGRPLPGRLNIVLSRQTDYQPEGVTVVATLEDAVVAAGDVEELMIIGGATIYNQCLAAADRLYLTHIELTTEGDTWFPDYEQYNWQEIEHESYAADDKNPHNYRFSLLERVK
notes: N-terminal His7-eGFP (A206K)-linker with TEV site-DHFRMp at the C-terminus; fusion uncut; E. coli BL21; not encapsulated
- Km [3]: 33 (±2) µM
